The record followed here is ChEMBL document CHEMBL6071129, “Strategies that regulate Hippo signaling pathway for novel anticancer therapeutics” (Eur J Med Chem, 2024).

Data set [1] relates to U-251. In words: Antiproliferative activity against human U251 cells incubated for 48 hrs by CCK8 assay. The note with it: U-251, 48 h. The data set is classed as functional, cell-based. A general note: Formazan colour is commonly taken as a measure of viable cells.
Data set [2] relates to C6. In words: Antiproliferative activity against rat C6 cells incubated for 48 hrs by CCK8 assay. The format is functional, cell-based. The note with it: C6, 48 h.
The subject of data set [3] is 4T1. As to the kind of experiment: Antiproliferative activity against mouse 4T1 cells incubated for 72 hrs by SRB method. The format is functional, cell-based. The note with it: 4T1, 72 h.
The test system of data set [4] is MDA-MB-231. As to the kind of experiment: Antiproliferative activity against human MDA-MB-231 cells incubated for 72 hrs by SRB method. The data set is classed as functional, cell-based. The note with it: MDA-MB-231, 72 h. Background: Sulforhodamine B stains cellular protein and so reports cell mass.
The nature of data set [5]: Half life in ICR mouse at 15 mg/kg, po measured upto 24 hrs by LC-MS/MS analysis. The format is ADME, organism-based. The note with it: in vivo.
The nature of data set [6]: Antitumor activity against human MP41 cells xenografted in BALB/c nu/nu mouse assessed as tumor growth inhibition at 30 mg/kg/day, ip administered for 21 days. The format is functional. The note with it: MP41, 504 h, time 21 day, read-out: TGI.
Data set [7] can be described thus: Antiproliferative activity against human MP41 cells incubated for 72 hrs by CCK8 assay. The format is functional, cell-based. The note with it: MP41, 72 h.
A short description of data set [8]: Antiproliferative activity against human 92.1 cells incubated for 72 hrs by CCK8 assay. The data set is classed as functional, cell-based. The note with it: 92-1, 72 h.
A short description of data set [9]: Antitumor activity against human NCI-H2373-Tu-P2 cells xenografted in BALB/c mouse assessed as tumor growth inhibition at 3 mg/kg/day. The format is functional. The note with it: read-out: TGI.
Data set [10] is described as follows: Half-life in mouse. The data set is classed as ADME, organism-based. The note with it: in vivo.
A short description of data set [11]: Antiproliferative activity against human NCI-H2373 cells. The format is functional, cell-based.
Data set [12] has as its system NCI-H226. In words: Antitumor activity against human NCI-H226 cells xenografted in BALB/c mouse assessed as tumor growth inhibition at 3 mg/kg/day. The data set is classed as functional. The note with it: read-out: TGI. (In general: In xenograft studies the graft and the host belong to different species.)
Data set [13] is described as follows: Oral bioavailability in mouse. The format is ADME, organism-based. The note with it: in vivo.
Data set [14] relates to NCI-H226. As to the kind of experiment: Antiproliferative activity against human NCI-H226 cells. The format is functional, cell-based.
Data set [15] relates to NCI-H28. As to the kind of experiment: Antiproliferative activity against human NCI-H28 cells. The data set is classed as functional, cell-based.
Data set [16] can be described thus: Inhibition of TEAD (unknown origin) by YAP reporter assay. More on the design: species or system Homo sapiens.
Data set [17] has as its system SCC-9. In words: Antiproliferative activity against human SCC-9 cells incubated for 72 hrs by MTT assay. The data set is classed as functional, cell-based. The note with it: SCC-9, 72 h.
Data set [18] in a line: Inhibition of TAZ expressed in HEK293 cells incubated for 24 hrs by dual luciferase reporter assay. The format is cell-based. The note with it: Homo sapiens, HEK293, 24 h.
For data set [19], the system named is HSC-3. As to the kind of experiment: Antiproliferative activity against human HSC-3 cells incubated for 72 hrs by MTT assay. The format is functional, cell-based. The note with it: HSC-3, 72 h.
Data set [20] deals with SCC-15. In words: Antiproliferative activity against human SCC-15 cells incubated for 72 hrs by MTT assay. The note with it: SCC-15, 72 h. The data set is classed as functional, cell-based.
Data set [21] has as its system SCC-9. In words: Antitumor activity against human SCC9 cells xenografted in nude mouse assessed as tumor growth inhibition at 50 mg/kg, po administered every other day. The note with it: read-out: TGI. The data set is classed as functional.
The test system of data set [22] is A549. As to the kind of experiment: Antiproliferative activity against human A549 cells incubated for 48 hrs by SRB method. The note with it: A549, 48 h. The data set is classed as functional, cell-based.
Data set [23] deals with NCI-H1975. In words: Antiproliferative activity against human NCI-H1975 cells incubated for 48 hrs by SRB method. The data set is classed as functional, cell-based. The note with it: NCI-H1975, 48 h.
Data set [24] deals with NCI-H441. In words: Antiproliferative activity against human NCI-H441 cells incubated for 48 hrs by SRB method. The format is functional, cell-based. The note with it: NCI-H441, 48 h.
A short description of data set [25]: Antiproliferative activity against human Mel202 cells. The format is functional, cell-based.
The nature of data set [26]: Antiproliferative activity against human OMM2.3 cells. The data set is classed as functional, cell-based.
Data set [27] relates to Huh-7. In words: Inhibition of tumor sphere formation in human Huh-7 cells. The data set is classed as functional, cell-based.
The nature of data set [28]: Inhibition of YAP/TEAD (unknown origin) activity. More on the design: species or system Homo sapiens.
The test system of data set [29] is PC-9. As to the kind of experiment: Antiproliferative activity against human PC-9 cells incubated for 72 hrs by Incucyte FLR live cell analysis. The note with it: PC-9, 72 h. The format is functional, cell-based.
Data set [30] concerns HCC4006. As to the kind of experiment: Antiproliferative activity against human HCC4006 cells incubated for 72 hrs by Incucyte FLR live cell analysis. The format is functional, cell-based. The note with it: HCC4006, 72 h.
For data set [31], the system named is SGC-7901. As to the kind of experiment: Antiproliferative activity against human SGC-7901 cells incubated for 48 hrs by MTT assay. The format is functional, cell-based. The note with it: SGC-7901, 48 h.
Data set [32] relates to MCF7. In words: Antiproliferative activity against human MCF7 cells incubated for 48 hrs by MTT assay. The format is functional, cell-based. The note with it: MCF7, 48 h.
For data set [33], the system named is HCT-116. As to the kind of experiment: Antiproliferative activity against human HCT-116 cells incubated for 48 hrs by MTT assay. The format is functional, cell-based. The note with it: HCT-116, 48 h.
For data set [34], the system named is HGC-27. In words: Antiproliferative activity against human HGC-27 cells incubated for 48 hrs by MTT assay. The data set is classed as functional, cell-based. The note with it: HGC-27, 48 h.
The subject of data set [35] is MGC-803. In words: Antiproliferative activity against human MGC-803 cells incubated for 48 hrs by MTT assay. The data set is classed as functional, cell-based. The note with it: MGC-803, 48 h.
In data set [36] the test system is PC-3. In words: Antiproliferative activity against human PC-3 cells incubated for 48 hrs by MTT assay. The note with it: PC-3, 48 h. The data set is classed as functional, cell-based.

The term IC50 denotes the point on the concentration scale where inhibition reaches its midpoint. A lower IC50 goes with inhibition by little substance. The term half-life denotes the time in which the quantity being followed falls by half. Low values mean rapid decline, high ones slow decline. Broadly, the bioavailability is dose-corrected exposure relative to a reference, in per cent. A higher bioavailability goes with much systemic uptake.

For `O=c1ccc2ccc3occc3c2o1` [ANGELICIN], the half-maximal inhibitory concentration (IC50) in data set [1] and in data set [2] was 200000 nM in each case.
With `O=c1cc(-c2ccc(O)c(O)c2)oc2cc(O)cc(O)c12` [LUTEOLIN], the figures for the IC50 in data set [3] and in data set [4] were 6980 nM and 19200 nM, respectively.
In data set [5], `CN1CCCC1CN1CCn2cc(-c3ccccc3)nc2[C@@H]1CC1CCCCC1` (stereo partly specified) gave a half-life of 2.4 h. In addition, in [6], the inhibition in vivo at 30 mg/kg/day stood at 107%. Further, the IC50 in [7] amounted to 5100 nM; in data set [8], 10400 nM.
Turning to `CNS(=O)(=O)c1ccc(Nc2ccc(C(F)(F)F)cc2)c(-c2cn(C)cn2)c1`, the inhibition in vivo at 3 mg/kg/day is 118% in data set [9] and 106% in [12]. Also, in [10], the half-life was above 12 h. The half-maximal inhibitory concentration (IC50) is 15.2 nM in data set [11], 3.8 nM in data set [14], above 3000 nM in data set [15] and 1.02 nM in [16]. The molecule also had a bioavailability in [13] of at least 75%.
Consider `CC(C)[C@H](C(=O)Nc1ccc(C(=O)NO)cc1)c1ccccc1` [AR-42], for which the IC50 was 240 nM in [17], below 300 nM in data set [18], 800 nM in [19] and 350 nM in [20]. Moreover, the inhibition in vivo at 50 mg/kg in data set [21] came to 85%.
In the case of `Cc1cc2c(C(C)C)c(O)c(O)c(C=O)c2c(O)c1-c1c(C)cc2c(C(C)C)c(O)c(O)c(C=O)c2c1O`, the 50% inhibitory concentration (IC50) came out at 10000 nM in data set [22], 6770 nM in data set [23] and 19900 nM in data set [24].
`O=C(CSc1nnc[nH]1)Nc1ccc(C23CC4CC(CC(C4)C2)C3)cc1`: the IC50 was determined as 4240 nM in [25], 4580 nM in data set [26] and 720 nM in data set [27].
For the molecule `C=CC(=O)N1CCC(C)(Nc2cccc(C(F)(F)F)c2)C1` (stereo unspecified), the IC50 in data set [28] is 800 nM; in [29] it was below 10000 nM; in data set [30], below 10000 nM.
For the molecule `COc1ccc(S(=O)(=O)N(Cc2nc(C)c3ccccc3n2)c2cc(OC)c(OC)c(OC)c2)cc1`, the IC50 in data set [31] is 380 nM; in [32], 810 nM; in data set [33], 700 nM; in data set [34] it was 460 nM; in data set [35], 360 nM; in data set [36] it was 1040 nM.
